Assay results as given in US20230257373A1, “QUORUM SENSING INHIBITORS AND METHODS OF USE” (priority 2020, published 2023).
Where “and” joins values, the source holds several entries; their conditions need not be identical. Identical values can stand only once. Like-named read-outs stand apart in the source and are kept apart here.

Legend:
[1] = test system: SmcR regulon; conditions: cited from earlier work
[2] = target: T1, SmcR (Vibrio vulnificus, UniProt Q9L8G8); experiment: ITC analysis of SmcR interaction with inhibitors; format: binding, V. vulnificus
T1 sequence (Q9L8G8 entry or part of it): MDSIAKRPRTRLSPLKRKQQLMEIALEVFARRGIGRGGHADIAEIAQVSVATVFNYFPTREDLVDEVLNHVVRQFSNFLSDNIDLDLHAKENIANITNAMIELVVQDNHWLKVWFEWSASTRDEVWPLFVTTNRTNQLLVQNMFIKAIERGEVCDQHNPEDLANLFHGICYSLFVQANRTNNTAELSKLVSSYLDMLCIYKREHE
Source text: To test the validity of the modelling predictions for PTSP, we performed isothermal titration calorimetry (ITC) to determine the binding affinity of SmcR and LuxR for PTSP. […] We noted that PTSP binding to both LuxR and SmcR had lower entropy and enthalpy compared to SmcR binding to Qstatin. […] Thus, we conclude that the efficacy of PTSP inhibition in vivo in these two Vibrio species correlates to the binding affinity determined in vitro for these two proteins.
SmcR and LuxR were purified as described previously. EMSAs were conducted as described previously using oligonucleotides corresponding to the luxC and vvpE promoter sequences. ITC analysis was conducted using purified LuxR or His-tagged SmcR, each in gel-filtration buffer (25 mM Tris pH 7.5, 300 mM NaCl, 0.5 mM EDTA, 1 mM DTT, 2% DMSO). All molecules analyzed were diluted in the same buffer. The samples were degassed for 10 min by vacuum aspiration. Titrations were performed on a Nano-ITC (TA Instruments). […] Thermograms were analyzed using NanoAnalyze software with the independent binding model.

[3] = test system: PluxC-gfp reporter in V. parahaemolyticus; experiment: PluxC-gfp reporter in V. parahaemolyticus strains; conditions: Vibrio parahaemolyticus
[4] = test system: PluxC-gfp reporter in V. campbellii; experiment: PluxC-gfp reporter in V. campbellii strains; conditions: Vibrio campbellii
[5] = test system: V. campbellii, V. parahaemolyticus, and V. vulnificus; conditions: cited from earlier work
[6] = test system: PluxC-gfp reporter in V. coralliilyticus; experiment: PluxC-gfp reporter in V. coralliilyticus strains
[7] = target: T1, SmcR; conditions: Kim et al., 2018; cited from earlier work
[8] = target: T2, V. campbellii LuxR (Vibrio harveyi, UniProt P21308); experiment: E. coli dual-color bioassay (pKM699 LuxR, pJV064 reporter); format: cell-based
T2 construct: expressed in transfected cells; host or cells: E. coli DH10B with pKM699 and reporter pJV064
T2 sequence (P21308 whole entry): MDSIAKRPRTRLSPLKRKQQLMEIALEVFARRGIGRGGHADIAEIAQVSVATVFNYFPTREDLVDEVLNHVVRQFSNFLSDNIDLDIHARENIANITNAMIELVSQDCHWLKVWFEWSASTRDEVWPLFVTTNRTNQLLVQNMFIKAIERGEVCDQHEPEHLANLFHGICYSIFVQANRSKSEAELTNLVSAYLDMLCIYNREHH
Source text: Previously, we developed a bioassay that consists of a dual-color fluorescent reporter plasmid that reports both LuxR activities: the luxCDABE promoter is activated by LuxR and drives expression of gfp, and the VIBHAR_05222 promoter is repressed by LuxR and drives expression of mCherry (van Kessel et al., 2013b) (FIG. 2A). We used this reporter plasmid in an E. coli strain that also contains a plasmid expressing LuxR from its native promoter.
A bioassay was developed to monitor LuxR function that consists of a dual-color reporter plasmid (pJV064) that reports both activities: the luxCDABE promoter is activated by LuxR and drives expression of gfp, and the 05222 promoter is repressed by LuxR and drives expression of mCherry (van Kessel, Ulrich et al. 2013). This reporter plasmid was used in an E. coli strain that also contains a plasmid (pKM699) expressing LuxR from its native promoter. E. coli cultures containing these two plasmids were grown at 30° C. in LB medium with chloramphenicol (10 μg/ml) and tetracycline (10 μg/ml) to select for the two plasmids. Compounds were added to the cultures at a range of concentrations, and the cultures were incubated for 16 hours shaking at 30° C.
The dual-promoter fluorescence reporter assays were performed using E. coli strain DH10B containing two plasmids: 1) plasmid pJV064 containing the PluxC fused to GFP and P05222fused to mCherry to assess LuxR transcriptional regulation, and 2) plasmid pKM699 expressing V. campbellii luxR under control of its native promoter or empty vector pLAFR2.

[9] = test system: PluxC-gfp reporter in V. vulnificus; experiment: PluxC-gfp reporter in V. vulnificus strains; conditions: Vibrio vulnificus

O=S(=O)(c1ccc(Br)s1)n1cccn1 [Qstatin, 1-((5-bromothiophen-2-yl)sulfonyl)-1H-pyrazole, reference compound]
Off-target effects in the ΔsmcR strain ([1]; RNA-seq, ΔsmcR strain): no significant off-target effects
Overlap of Qstatin-treated regulon with the SmcR regulon ([1]; RNA-seq): more than 50%
Increase of smcR transcript levels ([1]; wild-type V. vulnificus): 2.5 fold
Ka [2]: 1.36e+06 M⁻¹
ΔG [2]: -8.37 kcal/mol and -8.365 kcal/mol
ΔH [2]: -19.58 kcal/mol
ΔS [2]: −157.30 J/mol · K
−TΔS [2]: 11.21 kcal/mol
Kd ([2]; 25° C., read-out: Kd): 738 nM
IC50 ([3]; read-out: IC50, V. parahaemolyticus RIMD2210633, luxCDABE reporter plasmid): 2800 nM
IC50 ([3]; read-out: Inhibition (IC50) of the PluxC-gfp reporter, Vpara 12-297/B): 1700 nM
IC50 ([3]; read-out: Inhibition (IC50) of the PluxC-gfp reporter, Vpara D4): 3000 nM
IC50 ([3]; read-out: Inhibition (IC50) of the PluxC-gfp reporter, Vpara RIMD 2210633): 2300 nM
IC50 ([4]; ATCC25920, read-out: Inhibition (IC50) of the PluxC-gfp reporter, Vcamp ATCC 25920): 800 nM
IC50 ([4]; read-out: IC50, V. campbellii BB120, luxCDABE): 1300 nM
IC50 ([4]; read-out: Inhibition (IC50) of the PluxC-gfp reporter, Vcamp BB120): 4000 nM
IC50 ([4]; read-out: Inhibition (IC50) of the PluxC-gfp reporter, Vcamp HY01): 1200 nM
Inhibition of pathogenesis in shrimp infection assay [5]: inhibits pathogenesis
IC50 ([6]; read-out: IC50, V. coralliilyticus OCN008, luxCDABE reporter plasmid): 3600 nM
IC50 ([6]; read-out: Inhibition (IC50) of the PluxC-gfp reporter, Vcoral OCN 008): 11600 nM
IC50 ([6]; read-out: Inhibition (IC50) of the PluxC-gfp reporter, Vcoral OCN 014): 22200 nM
Effect on SmcR DNA binding affinity [7]: very little effect
Inhibition of LuxR in the E. coli bioassay (in words) ([8]; GFP and mCherry reporters): inhibited LuxR activity
IC50 ([8]; Table 2, titration, 16 hours, read-out: Inhibition (IC50) of GFP production by LuxR in E. coli bioassay): 5000 nM
IC50 ([8]; read-out: IC50 in the bioassay (approximate)): 5000 to 10000 nM and 10000 to 20000 nM
IC50 ([9]; ATCC27562, read-out: IC50, V. vulnificus ATCC 27562, luxCDABE reporter plasmid): 400 nM
IC50 ([9]; ATCC27562, read-out: Inhibition (IC50) of the PluxC-gfp reporter, Vvul ATCC 27562): 500 nM
IC50 ([9]; read-out: Inhibition (IC50) of the PluxC-gfp reporter, Vvul CMPC6): 2100 nM
IC50 ([9]; read-out: Inhibition (IC50) of the PluxC-gfp reporter, Vvul YJ016): 900 nM
